Measured values taken from US8192962B2, “Processes for detecting toxic substances” (Daikin Industries, Ltd., priority 2001, dated 2012).

Tested on: Energy system protein genes
Assay: DNA chip mRNA expression in yeast, energy system protein genes (Table 4)
Assay type: cell-based, Saccharomyces cerevisiae S288C
In short: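 Measured as treated-to-untreated fluorescence ratio on a full-genome yeast DNA chip. Cells (S288C, YPD, 25° C.) were exposed in log phase for two hours to one chemical, dosed to curb growth without killing.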

Measured: The level of expressed mRNA in the presence of chemical substance/The level of expressed mRNA in the absence of chemical substance

Oc1cc(Cl)c(Cl)cc1Cl [(6), 2,4,5-trichlorophenol]
6.5: yeast gene YDL021W
0.7: yeast gene YGL256W, cells incubated two hours with the chemical substance | yeast gene YJL166W, cells incubated two hours with the chemical substance | yeast gene YLR377C, cells incubated two hours with the chemical substance
3.7: yeast gene YHR179W
2.2: yeast gene YDR001C | yeast gene YDR231C
2.4: yeast gene YJL052W
0.5: yeast gene YJR048W | yeast gene YKL148C, cells incubated two hours with the chemical substance
3.2: yeast gene YFR053C
16.3: yeast gene YGR043C
7.1: yeast gene YPL088W
1.4: yeast gene YGR174C, cells incubated two hours with the chemical substance | yeast gene YJR155W | yeast gene YKR058W, cells incubated two hours with the chemical substance, 25° C., YPD medium | yeast gene YMR267W, cells incubated two hours with the chemical substance, 25° C., YPD medium | yeast gene YOR388C, cells incubated two hours with the chemical substance
1.5: yeast gene YEL039C, cells incubated two hours with the chemical substance | yeast gene YHR174W | yeast gene YJR121W, cells incubated two hours with the chemical substance | yeast gene YLR044C, cells incubated two hours with the chemical substance | yeast gene YLR354C, cells incubated two hours with the chemical substance | yeast gene YPR184W, cells incubated two hours with the chemical substance
1.9: yeast gene YGR254W | yeast gene YLR304C, cells incubated two hours with the chemical substance
6.2: yeast gene YGR256W
2.6: yeast gene YGR244C | yeast gene YIL111W
1.6: yeast gene YGL191W, cells incubated two hours with the chemical substance | yeast gene YGL205W, cells incubated two hours with the chemical substance | yeast gene YIL160C | yeast gene YJR009C | yeast gene YKL152C | yeast gene YLR345W | yeast gene YOR142W, cells incubated two hours with the chemical substance | yeast gene YPL262W, cells incubated two hours with the chemical substance
1.0: yeast gene YCR105W, cells incubated two hours with the chemical substance | yeast gene YGL062W | yeast gene YPL275W, cells incubated two hours with the chemical substance
0.6: yeast gene YML120C, cells incubated two hours with the chemical substance | yeast gene YMR261C, cells incubated two hours with the chemical substance | yeast gene YPR048W, cells incubated two hours with the chemical substance
4.2: yeast gene YAL060W
3.5: yeast gene YCL040W
2.0: yeast gene YMR118C | yeast gene YNL202W, cells incubated two hours with the chemical substance
2.9: yeast gene YBR126C | yeast gene YGR008C
0.9: yeast gene YBL058W, cells incubated two hours with the chemical substance | yeast gene YBL099W, cells incubated two hours with the chemical substance | yeast gene YDL067C, cells incubated two hours with the chemical substance | yeast gene YGR062C, cells incubated two hours with the chemical substance, 25° C., YPD medium | yeast gene YLR284C, cells incubated two hours with the chemical substance | yeast gene YML087C | yeast gene YMR073C, cells incubated two hours with the chemical substance | yeast gene YNL241C
1.8: yeast gene YKR009C, cells incubated two hours with the chemical substance | yeast gene YLR258W, cells incubated two hours with the chemical substance | yeast gene YML054C | yeast gene YNL331C | yeast gene YPL031C, cells incubated two hours with the chemical substance
0.8: yeast gene YCR046C, cells incubated two hours with the chemical substance | yeast gene YDR529C, cells incubated two hours with the chemical substance | yeast gene YHL008C | yeast gene YKL016C, cells incubated two hours with the chemical substance
1.1: yeast gene YBR001C, cells incubated two hours with the chemical substance | yeast gene YDL078C, cells incubated two hours with the chemical substance | yeast gene YEL024W, cells incubated two hours with the chemical substance | yeast gene YGL187C, cells incubated two hours with the chemical substance | yeast gene YGR087C, cells incubated two hours with the chemical substance | yeast gene YJL121C, cells incubated two hours with the chemical substance | yeast gene YLR295C, cells incubated two hours with the chemical substance, 25° C., YPD medium | yeast gene YPL276W, cells incubated two hours with the chemical substance
2.1: yeast gene YDR178W, cells incubated two hours with the chemical substance
1.7: yeast gene YBR221C, cells incubated two hours with the chemical substance | yeast gene YDL174C | yeast gene YDR050C, cells incubated two hours with the chemical substance | yeast gene YDR079W, cells incubated two hours with the chemical substance | yeast gene YGR192C | yeast gene YIL045W | yeast gene YIR031C, cells incubated two hours with the chemical substance | yeast gene YKR097W | yeast gene YML129C, cells incubated two hours with the chemical substance | yeast gene YOL086C, cells incubated two hours with the chemical substance | yeast gene YOL165C | yeast gene YPL061W, cells incubated two hours with the chemical substance
2.8: yeast gene YGR207C | yeast gene YML100W | yeast gene YMR105C
1.2: yeast gene YBR185C, cells incubated two hours with the chemical substance | yeast gene YDL181W, cells incubated two hours with the chemical substance | yeast gene YDR298C, cells incubated two hours with the chemical substance | yeast gene YFL057C | yeast gene YKL035W | yeast gene YKL141W, cells incubated two hours with the chemical substance | yeast gene YLL041C, cells incubated two hours with the chemical substance | yeast gene YLR038C, cells incubated two hours with the chemical substance | yeast gene YMR089C | yeast gene YMR205C, cells incubated two hours with the chemical substance | yeast gene YPL240C
2.5: yeast gene YCR012W | yeast gene YER178W | yeast gene YLR134W, cells incubated two hours with the chemical substance
2.7: yeast gene YOR178C, cells incubated two hours with the chemical substance
0.4: yeast gene YGL018C, cells incubated two hours with the chemical substance | yeast gene YLR395C, cells incubated two hours with the chemical substance | yeast gene YMR323W, cells incubated two hours with the chemical substance
3.0: yeast gene YFR015C
4.6: yeast gene YNL237W
1.3: yeast gene YDL107W, cells incubated two hours with the chemical substance | yeast gene YDR377W, cells incubated two hours with the chemical substance | yeast gene YKL060C, cells incubated two hours with the chemical substance | yeast gene YML125C | yeast gene YNL071W | yeast gene YPL171C
